Results on eight compounds are retold here after patent US5173500A, “Pharmaceutical compositions and methods of sulphonamides containing a tetrazolyl radical” (Boehringer Mannheim GmbH, priority 1988, dated 1992).

The IC50 is the midpoint of a concentration-inhibition curve. The low end stands for higher potency, the high end for lower potency.

Experiment [1] has as its system thrombocyte aggregation induced by thromboxane mimetic U 46619 (TX antagonistic effect). Kind of experiment: Thrombocyte aggregation induced by U 46619 in platelet-rich plasma (method of Born and Cross). The class given is cell-based. The following applies: Homo sapiens, 5 min; platelet-rich plasma of healthy blood donors; aggregation induced by U 46619, followed over 5 minutes. The text has this: Thrombocyte aggregation was investigated by the method of Born to Cross (J. Physiol. 168, 178 (1963)) in platelet-rich plasma of healthy blood donors. To inhibit clotting, the blood was mixed with 3.2% citrate in a ration by volume 1:9.
To induce thrombocyte aggregation, U 46619 (Upjohn & Co., Kalamazoo, Mich., USA), which is a stable analog of the prostagladin endoperoxide PHG2, was used. U 46619 has been characterized as a selective thromboxane mimetic (Coleman et al., Brit. J. Pharmacol. 68, 127 P., 1980).
The aggregation test was carried out in a 4-channel aggregometer (Profiler®, of the Bio/Data Co., USA). The course of the aggregation was followed over a period of 5 minutes. At the end of the test, the degree of aggregation attained was printed out. These values, which were obtained in the presence of different concentrations of the substance being tested, were used for the determination of the IC50 value for the TX antagonistic effect. The effectiveness varies inversely with the IC50 value.

In experiment [2] the test system is Male NMRI mice challenged with lethal dose of U 46619. Kind of experiment: Survival of mice after lethal i.v. injection of thromboxane mimetic U 46619. The class given is in vivo. The following applies: Mus musculus, iv, lethal dose U 46619 (800-1000 ug/kg) i.v. after 4 hours; for responders at 1 mg/kg: 1 mg/kg by stomach tube in 1% methylcellulose, read-out: Survival Rate of Mouse 1 mg/kg, 4 h in %; for responders at 25 mg/kg: 25 mg/kg by stomach tube in 1% methylcellulose, read-out: Survival Rate of Mouse 25 mg/kg, 4 h in %. As for the experimental part:
Male NMRI mice, with a body weight of 25 g, were used. The test substance was suspended in 1% methylcellulose and administered to the experimental animals with the aid of a stomach tube. The provacation test consisted of injecting a lethal dose (800-1000/ug/kg) of the thromboxane mimetic (U 46619, Upjohn Co.) rapidly into the tail vein. The duration of the specific antagonistic effect was tested by pretreating the animals with 25 or 1 mg/kg of the different test substances and injecting U 46619 after 4 hours. The survival rate indicates how many of the animals which were used survived the injection of the thromboxane mimetic.

In experiment [1], `O=C(CCC(=O)c1ccc(CCNS(=O)(=O)c2ccc(Br)cc2)cc1)Nc1nnn[nH]1` [6/III, 4-Oxo-4-{4-[2-(4-bromobenzenesulphonamido)-ethyl]-phenyl}-butyric acid (1H-tetrazol-5-yl)-amide] showed an IC50 of 55 µM. Moreover, in experiment [2], the responders at 1 mg/kg was 100% and the responders at 25 mg/kg came to 100%.
Compound `O=C(COc1cccc(CCNS(=O)(=O)c2ccc(Cl)cc2)c1)Nc1nnn[nH]1` [Example 2, 3-[2-(4-Chlorobenzenesulphonamido)-ethyl]-phenoxyacetic acid (1H-tetrazol-5-yl)-amide] registered an IC50 in experiment [1] of 6 µM. Besides, in experiment [2], the responders at 1 mg/kg was 100% and the responders at 25 mg/kg came to 100%.
`O=S(=O)(NCCc1ccc(Nc2nnn[nH]2)cc1)c1ccc(Cl)cc1` [Example 3, 4-[2-(4-Chlorobenzenesulphonamido)-ethyl]-N-(1H-tetrazole-5-yl)-aniline]: the IC50 in experiment [1] was determined as 0.2 µM. In experiment [2], the responders at 1 mg/kg amounted to 20% and the responders at 25 mg/kg was found to be 100%.
The matching figures for `O=C(COc1ccc(CCNS(=O)(=O)c2ccc(Cl)cc2)cc1)Nc1nnn[nH]1` [Example 4, 4-[2-(4-Chlorobenzenesulphonamido)-ethyl]-phenoxyacetic acid (1H-tetrazol-5-yl)-amide]: 9 µM, 80% and 100%.
Regarding `O=C(Cc1ccc(CCNS(=O)(=O)c2ccc(Cl)cc2)cc1)Nc1nnn[nH]1` [Example 5, 4-[2-(4-Chlorobenzenesulphonamido)-ethyl]-phenylacetic acid (1H-tetrazol-5-yl)-amide], the IC50 in experiment [1] turned out to be 0.9 µM. In experiment [2], the responders at 1 mg/kg came out at 80% and the responders at 25 mg/kg was 100%.
Taken in the same sequence, the figures for `O=S(=O)(NCCc1ccc(Cc2nnn[nH]2)cc1)c1ccc(Cl)cc1` [Example 8, 5-{4-[2-(4-Chlorobenzenesulphonamido)-ethyl]-phenyl-methyl}-1H-tetrazole] were 0.07 µM, 100% and 100%.
The matching figures for `Cc1ccc(S(=O)(=O)NCCc2cccc(OCC(=O)Nc3nnn[nH]3)c2)cc1` [Example 15, 3-[2-(4-Methylbenzenesulphonamido)-ethyl]-phenoxyacetic acid (1H-tetrazol-5-yl)-amide]: 24 µM, 100% and 100%.
`O=C(COc1cccc(CCNS(=O)(=O)c2ccccc2Cl)c1)Nc1nnn[nH]1` [Example 16, 3-[2-(2-Chlorobenzenesulphonamido)-ethyl]-phenoxyacetic acid (1H-tetrazol-5-yl)-amide] came in with an IC50 in experiment [1] of 17 µM. In addition, in experiment [2], the responders at 1 mg/kg stood at 40% and the responders at 25 mg/kg amounted to 100%.
